From US10690673B2, “Method of treating cancer metastasis by CDK 4/6 inhibitors” (Mayo Foundation for Medical Education and Research, priority 2016, dated 2020)
Where a SMILES comes first, the peptide text is derived from it. The star is where a group is joined. Cbz = O=C(OCc1ccccc1)*

Key:
[1] = test system: human breast tumor biopsy sample HCI001; assay: Patient-derived xenograft (PDX) model of triple negative breast cancer, tumor growth and metastasis; assay type: in vivo, mice; settings: 100 mg/kg daily, PO, five weeks; saline group 6/8; significantly decreased
Protocol: FIG. 13. CDK 4/6 inhibition inhibits cancer metastasis. (A) DUB3 and SNAIL1 polypeptide levels in a subset of human breast tumor biopsy samples were examined. (B) Passage 3 tumors from HCI001 were used to test the effect of PD0332991 on metastasis. When primary tumors reached 100-150 mm^3, mice were randomized and treated either with saline or PD0332991 for five weeks (n=8). Tumor weights were measured after mice were sacrificed (B). Tumor volumes were measured every week (C). After mice were sacrificed, liver (D-F) and lung (G-I) metastatic nodules were examined macroscopically or detected in paraffin-embedded sections stained with H&E. (J) The working model to illustrate that CDK 4/6 phosphorylation-dependent activation of DUB3 regulates EMT and metastasis through SNAIL1.
The results provided herein indicate that DUB3 stabilizes SNAIL1 polypeptide through deubiquitinating SNAIL1 and CDK 4/6 activity is involved in SNAIL1 stabilization. […] DUB3 and SNAIL1 levels were detected and correlated in a subset of human breast cancer samples from the BEAUTY project (FIG. 13A). […]
A patient-derived xenograft model was generated from an estrogen receptor-negative, progesterone receptor-negative, human epidermal growth factor receptor 2-negative (ER^−PR^−_HER2^−) high-grade invasive ductal carcinoma. […] Tumor volumes were measured once per week. […] Data were analyzed using Student's t test. […]

[2] = test system: phosphorylation of DUB3 at Ser41; assay: Phosphorylation of DUB3 at Ser41 in transfected cells (anti-FLAG immunoprecipitation, Western blotting); assay type: cell-based; settings: cells transfected with FLAG-DUB3 WT
Protocol: FIG. 8. CDK 4/6 phosphorylates DUB3 at Ser 41. (A) DUB3 phosphorylation sites were analyzed by mass spectrometry. If the Ascore values for Ascore Seq_A are above 19, then the location is considered confidently assigned (indicated with pink cell backgrounds). (B) Cells were transfected with indicated plasmids and cell lysates were subjected to immunoprecipitation with an anti-FLAG antibody and Western blotting was performed. (C) Cells were transfected with indicated plasmids and were treated with vehicle, or pan-CDK inhibitor (Roscovitine 5 μM) or CDK 4/6 inhibitor (PD0332991 10 μM). The phosphorylation of Ser41 was examined. (D) CDK 4/6 phosphorylates DUB3 in vitro. Bacterially expressed GST and GST-DUB3 fusion polypeptides were incubated with active CDK4 or CDK6 in the presence of [γ-32P]ATP. Polypeptides were resolved by SDS-PAGE, and phosphorylated polypeptides were visualized with autoradiography. (E) Vector or FLAG-DUB3 were transfected in cells stably expressing indicated shRNA. The phosphorylation of Ser41 in DUB3 was then examined.
FIG. 15. CDK1 phosphorylates DUB3 at Ser41 in vitro, and the treatment of pan-CDK inhibitor Roscovitine decreased phosphorylation of DUB3. (A) Bacterially-expressed GST-DUB3 WT and GST-DUB3 S41A fusion polypeptides were incubated with active CDK4, CDK6, CDK1, or CDK2 in the presence of [γ-^32P]ATP. […]

SNAIL1 polypeptide = SNAIL1 polypeptide level by Western blotting in breast cancer cells; assay type: cell-based, human; settings: for SNAIL1 polypeptide level: 0, 3, 6, or 9 μM for 18 hours
Protocol: FIG. 3. DUB3 deubiquitinates and stabilizes SNAIL1. (A) Cell extracts were prepared from 4 luminal and 4 basal like subtypes of human breast cancer cell lines, and expression of SNAIL1, DUB3, E-cadherin and vimentin was analyzed by Western blotting. (B) MDA-MB-231 cells stably expressing control or DUB3 shRNAs were generated and Western blot was performed with the indicated antibodies. (C) Total RNA was isolated from cells in (B). mRNAs encoding SNAIL and β-actin were determined by reverse transcription-polymerase chain reaction (RT-PCR) and agarose gel electrophoresis. (D) MDA-MB-231 cells stably expressing control or DUB3 shRNAs were treated with vehicle or MG-132 (10 μM) for 1 hour and Western blot was performed with the indicated antibodies. (E-F) T47D and MCF-7 cells were infected with virus containing vector (“V”), FLAG-DUB3 (“WT”) and the C89S (“CS”) mutant, and Western blots were performed. (F) CHX pulse-chase assay was performed in cells. (G) Cells were cotransfected with indicated plasmids and treated with MG132 for 6 hours before cell lysates were boiled and immunoprecipitated with HA beads, and the polyubiquitylated SNAIL1 polypeptide was detected by an anti-ubiquitin antibody. (H) Cells were transfected with HA-SNAIL1 and treated with MG132 for 6 hours. Cell lysates were boiled and immunoprecipitated with HA beads and incubated with GST, GST-DUB3 or GST-DUB3 C89S mutant. The polyubiquitylated SNAIL1 polypeptide was detected by an anti-ubiquitin antibody.
FIG. 10. Ser41 phosphorylation regulates DUB3 activity. (A) Cells transfected with indicated constructs were lysed and co-immunoprecipitations experiments were performed using anti-FLAG antibody. The immunoprecipates were eluted by FLAG-peptide containing buffer and the activities of DUB3 were assayed using Ubiquitin-AMC (Ub-AMC) as a substrate. (B) The eluates were detected with anti-FLAG antibody. (C) MDA-MB-231 cells were treated with either vehicle or […] for indicated periods. Western blotting was performed with indicated antibodies.
FIG. 11. Phosphorylation of Ser41 regulates DUB3 activity. (A) Cells were cotransfected with indicated plasmids and treated with vehicle or CDK 4/6 inhibitor (PD0332991 10 μM). Cell lysates were boiled and immunoprecipitated with HA beads and immunoblotted as indicated. […] (G) The migratory abilities of cells were analyzed by a wound healing assay. […] After 12 weeks, mice were sacrificed and the development of lung metastases was determined by counting and quantifying lung metastatic nodules.
FIG. 14. […] (B) MDA-MB-231 cells were treated with vehicle or LY2835219 and the migration ability of cells was measured by a wound healing assay. […] (D) HCC1806 cells were treated with vehicle or LY2835219 and the migration ability of cells was measured by a wound healing assay. […]

CC(=O)c1c(C)c2cnc(Nc3ccc(N4CCNCC4)cn3)nc2n(C2CCCC2)c1=O [PD0332991, Palbociclib]
liver metastasis (mice with metastasis / mice in group) [1]: 1/8 | lung metastasis (mice with metastasis / mice in group) [1]: 2/8

CC[C@H](CO)Nc1nc(NCc2ccccc2)c2ncn(C(C)C)c2n1 [Roscovitine]
phosphorylation of DUB3 at Ser41 ([2]; Example 11, FIG. 15B, concentration not given): dramatically reduced | phosphorylation of DUB3 at Ser41 ([2]; Roscovitine 5 μM, FIG. 8C): dramatically reduced

Nc1nc(N)c(N=O)c(OCC2CCCCC2)n1 [DU6027]
SNAIL1 polypeptide level (SNAIL1 polypeptide; BT549 cells, FIG. 16): decreases | SNAIL1 polypeptide level (SNAIL1 polypeptide; MDA-MB-231 cells, FIG. 17): decreases

CC(C)C[C@@H](C=O)NC(=O)[C@H](CC(C)C)NC(=O)[C@H](CC(C)C)NC(=O)OCc1ccccc1 [MG-132] (Cbz-Leu-Leu-Leu-aldehyde)
effect on decreased SNAIL1 polypeptide level in cells depleting DUB3 (SNAIL1 polypeptide; MDA-MB-231 cells stably expressing DUB3 shRNAs, MG-132 10 μM for 1 hour, FIG. 3D): rescue | effect on PD0332991-induced reduction of SNAIL1 polypeptide level (SNAIL1 polypeptide; MDA-MB-231 cells, PD0332991 in the presence of MG-132, FIG. 11D): reversed
